Data reported in article PMC10013843 (Molecular psychiatry, 2022).

Legend:
sigma-1 receptors = sigma-1 receptors (Rattus norvegicus, UniProt Q9R0C9); details: cited from earlier work
HCN1 channel [1] = molecular target: T1, HCN1 channel (Homo sapiens, UniProt O60741); assay: HCN1 channel functional interaction; type: biochemical
T1 sequence (O60741 1-890): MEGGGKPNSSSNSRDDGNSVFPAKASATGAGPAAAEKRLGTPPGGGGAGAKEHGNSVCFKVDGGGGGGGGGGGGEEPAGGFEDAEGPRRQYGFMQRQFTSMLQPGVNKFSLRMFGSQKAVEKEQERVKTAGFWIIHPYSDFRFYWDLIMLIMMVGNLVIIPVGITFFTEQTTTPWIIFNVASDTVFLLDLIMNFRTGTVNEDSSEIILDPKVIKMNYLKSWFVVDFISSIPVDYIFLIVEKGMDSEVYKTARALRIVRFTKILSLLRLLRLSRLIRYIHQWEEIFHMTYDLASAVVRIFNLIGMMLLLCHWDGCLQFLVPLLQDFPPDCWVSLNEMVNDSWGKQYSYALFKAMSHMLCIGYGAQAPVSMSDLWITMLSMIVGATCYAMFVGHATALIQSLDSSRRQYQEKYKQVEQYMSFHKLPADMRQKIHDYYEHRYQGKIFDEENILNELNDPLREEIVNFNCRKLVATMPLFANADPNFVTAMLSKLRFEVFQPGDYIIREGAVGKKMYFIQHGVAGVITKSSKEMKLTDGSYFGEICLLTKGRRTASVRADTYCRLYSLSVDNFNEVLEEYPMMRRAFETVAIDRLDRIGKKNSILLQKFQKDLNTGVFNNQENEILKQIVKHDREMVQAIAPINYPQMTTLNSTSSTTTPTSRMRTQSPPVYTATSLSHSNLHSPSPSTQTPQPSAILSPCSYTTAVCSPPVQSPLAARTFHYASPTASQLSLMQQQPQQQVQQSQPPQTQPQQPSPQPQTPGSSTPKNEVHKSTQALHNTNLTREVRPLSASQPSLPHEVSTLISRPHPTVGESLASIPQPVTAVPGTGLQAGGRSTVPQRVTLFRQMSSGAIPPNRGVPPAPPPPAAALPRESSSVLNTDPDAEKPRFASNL

HCN1 channel [2] = molecular target: T1, HCN1 channel; details: cited from earlier work
rats [3] = details: cited from earlier work
MOR and KOR = details: cited from earlier work
KOR (OPRK1) = KOR (OPRK1) (Homo sapiens, UniProt P41145); details: cited from earlier work
[4] = molecular target: kappa-opioid receptors, KOR (Rattus norvegicus, UniProt P34975); details: cited from earlier work
mu-opioid receptors, MOR = mu-opioid receptors, MOR (Rattus norvegicus, UniProt P33535); details: cited from earlier work
MOR (OPRM1) = MOR (OPRM1) (Homo sapiens, UniProt P35372); details: cited from earlier work
rats [5] = details: cited from earlier work; remark: listed apart in the source
rats [6] = assay: Heroin self-administration and substitution; type: in vivo, rat; details: 0.5 mg/kg/inf IV

Chain of mu-opioid receptors, MOR (P33535 whole entry): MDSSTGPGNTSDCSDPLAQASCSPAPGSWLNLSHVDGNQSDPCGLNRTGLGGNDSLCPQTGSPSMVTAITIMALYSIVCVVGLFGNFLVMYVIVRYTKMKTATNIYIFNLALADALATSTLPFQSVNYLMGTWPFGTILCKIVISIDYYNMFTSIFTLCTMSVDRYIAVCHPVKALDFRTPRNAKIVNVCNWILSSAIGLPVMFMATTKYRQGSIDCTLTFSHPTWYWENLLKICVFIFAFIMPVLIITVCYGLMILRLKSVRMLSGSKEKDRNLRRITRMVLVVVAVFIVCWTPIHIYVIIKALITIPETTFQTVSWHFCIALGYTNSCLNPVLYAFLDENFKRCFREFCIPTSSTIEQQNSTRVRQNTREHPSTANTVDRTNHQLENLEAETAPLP
Chain of kappa-opioid receptors, KOR (P34975 whole entry): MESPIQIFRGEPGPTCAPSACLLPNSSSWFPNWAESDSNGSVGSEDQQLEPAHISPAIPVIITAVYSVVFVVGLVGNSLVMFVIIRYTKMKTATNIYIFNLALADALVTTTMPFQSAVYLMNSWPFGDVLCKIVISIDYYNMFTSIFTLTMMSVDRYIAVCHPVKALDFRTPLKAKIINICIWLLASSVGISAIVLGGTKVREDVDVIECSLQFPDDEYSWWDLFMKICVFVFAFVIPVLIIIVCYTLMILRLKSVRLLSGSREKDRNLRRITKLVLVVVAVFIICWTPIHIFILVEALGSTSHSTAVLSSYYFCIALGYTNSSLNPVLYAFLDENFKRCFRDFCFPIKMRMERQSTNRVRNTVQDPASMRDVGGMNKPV
Chain of MOR (OPRM1) (P35372 whole entry): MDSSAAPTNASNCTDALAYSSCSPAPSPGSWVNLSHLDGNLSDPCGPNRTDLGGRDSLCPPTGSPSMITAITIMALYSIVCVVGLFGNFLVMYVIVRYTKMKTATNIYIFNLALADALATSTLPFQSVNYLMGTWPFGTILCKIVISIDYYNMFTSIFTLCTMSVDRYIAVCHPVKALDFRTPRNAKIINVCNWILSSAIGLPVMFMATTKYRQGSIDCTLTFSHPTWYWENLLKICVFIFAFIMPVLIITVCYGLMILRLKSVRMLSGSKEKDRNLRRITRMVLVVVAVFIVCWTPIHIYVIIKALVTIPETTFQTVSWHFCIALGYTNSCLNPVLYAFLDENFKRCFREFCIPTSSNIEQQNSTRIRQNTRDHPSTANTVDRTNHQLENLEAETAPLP
Chain of KOR (OPRK1) (P41145 whole entry): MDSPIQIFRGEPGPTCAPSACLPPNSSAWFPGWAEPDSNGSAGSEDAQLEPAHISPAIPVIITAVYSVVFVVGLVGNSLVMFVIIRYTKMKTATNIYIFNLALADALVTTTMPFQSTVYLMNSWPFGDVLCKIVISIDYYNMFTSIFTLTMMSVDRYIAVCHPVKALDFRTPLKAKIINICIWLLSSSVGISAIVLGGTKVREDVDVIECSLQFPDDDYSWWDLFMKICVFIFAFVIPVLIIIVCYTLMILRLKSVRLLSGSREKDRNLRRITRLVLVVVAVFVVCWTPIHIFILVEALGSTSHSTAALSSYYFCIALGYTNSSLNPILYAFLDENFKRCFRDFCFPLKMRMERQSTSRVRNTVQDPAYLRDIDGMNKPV
Chain of sigma-1 receptors (Q9R0C9 whole entry): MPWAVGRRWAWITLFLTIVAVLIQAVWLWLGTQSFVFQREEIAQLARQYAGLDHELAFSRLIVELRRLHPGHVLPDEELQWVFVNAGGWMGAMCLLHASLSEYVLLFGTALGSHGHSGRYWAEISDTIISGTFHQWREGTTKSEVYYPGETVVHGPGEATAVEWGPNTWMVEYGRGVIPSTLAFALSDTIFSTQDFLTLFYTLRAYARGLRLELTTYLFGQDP

## CNC1(c2ccccc2Cl)CCCCC1=O (racemic) [ketamine, (R,S)-ketamine]
sigma-1 receptors
  binding to sigma receptors: weak binding
HCN1 channel [1]
  interaction with the HCN1 channel: neither (2R,6R)-HNK nor ketamine interacted
HCN1 channel [2]
  effect on HCN1 channels: inhibit

## N[C@@]1(c2ccccc2Cl)CCC[C@@H](O)C1=O [(2S,6S;2R,6R)-HNK, (2S,6S;2R,6R)-Hydroxynorketamine]
Rats [3]
  effect on acute morphine nociception or tolerance: no effect

## CN[C@@]1(c2ccccc2Cl)CCCCC1=O [(R)-ketamine]
MOR and KOR
  β-arrestin signaling: do not activate
KOR (OPRK1)
  KOR signaling, inhibition of cAMP accumulation: partial agonists
[4]
  binding to kappa (KOR) opioid receptors: bind
mu-opioid receptors, MOR
  binding to mu (MOR) opioid receptors: bind
MOR (OPRM1)
  MOR signaling, inhibition of cAMP accumulation: partial agonists

## CN[C@]1(c2ccccc2Cl)CCCCC1=O [(S)-ketamine]
Rats [5]
  self-administration in rats: is self-administered
MOR and KOR
  β-arrestin signaling: do not activate
Rats [6]
  pressing on first session after heroin substitution: increased their pressing
  self-administration on successive sessions after heroin substitution: escalation of self-administration
[4]
  binding to kappa (KOR) opioid receptors: bind
mu-opioid receptors, MOR
  binding to mu (MOR) opioid receptors: bind
